# Results taken from US6825225B2, “Bicyclic isoxazolinones as antibacterial agents” (Pharmacia & Upjohn Company, priority 2000, dated 2004).
# Test system: Methicillin-susceptible S. aureus UC®9213
# Experiment: Minimum inhibitory concentration (MIC) by agar dilution
# Type: cell-based
# Settings: Staphylococcus aureus, UC9213, lowest concentration that inhibits visible growth, read-out: Antibacterial Activity, Minimum Inhibitory Concentration, S.A.
# Description: The isoxazolinone antibacterial agents of this invention have useful activity against a variety of organisms. The in vitro activity of compounds of this invention can be assessed by standard testing procedures such as the determination of minimum inhibitory concentration (MIC) by agar dilution as described in “Approved Standard. Methods for Dilution Anti microbial Susceptibility Tests for Bacteria That Grow Aerobically”, 3rd. ed., published 1993 by the National Committee for Clinical Laboratory Standards, Villanova, Pa., USA. S.A is Methicillin-susceptible S. aureus UC®9213. Minimum inhibitory concentration refers to lowest concentration of drug (μg/mL) that inhibits visible growth of the organism.
row,SMILES,MIC
1,"CC(=O)NCn1cc(-c2ccc3c(c2)CC(C)N3C=O)c(=O)o1 (centres unmarked) [Example 1, N-{[4-(N-formyl-2-methylindolinyl)-5-oxo-isoxazol-2-yl]methyl}acetamide]",2 µg/mL
2,CN[C@H](CC(C)C)C(=O)N[C@H]1C(=O)N[C@@H](CC(N)=O)C(=O)N[C@H]2C(=O)N[C@H]3C(=O)N[C@H](C(=O)N[C@H](C(=O)O)c4cc(O)cc(O)c4-c4cc3ccc4O)[C@H](O)c3ccc(c(Cl)c3)Oc3cc2cc(c3O[C@@H]2O[C@H](CO)[C@@H](O)[C@H](O)[C@H]2O[C@H]2C[C@](C)(N)[C@H](O)[C@H](C)O2)Oc2ccc(cc2Cl)[C@H]1O [vancomycin],1 µg/mL
